Data on eleven compounds can be found in US10428055B2, “Substituted piperidines having GPR119 agonistic activity” (DONG-A ST CO., LTD., priority 2014, dated 2019).

For the assay, the target named is T1, Human GPR119 (Homo sapiens, UniProt Q8TDV5).
T1 construct: host or cells: HEK293 (ATCC)
T1 sequence (Q8TDV5 1-335): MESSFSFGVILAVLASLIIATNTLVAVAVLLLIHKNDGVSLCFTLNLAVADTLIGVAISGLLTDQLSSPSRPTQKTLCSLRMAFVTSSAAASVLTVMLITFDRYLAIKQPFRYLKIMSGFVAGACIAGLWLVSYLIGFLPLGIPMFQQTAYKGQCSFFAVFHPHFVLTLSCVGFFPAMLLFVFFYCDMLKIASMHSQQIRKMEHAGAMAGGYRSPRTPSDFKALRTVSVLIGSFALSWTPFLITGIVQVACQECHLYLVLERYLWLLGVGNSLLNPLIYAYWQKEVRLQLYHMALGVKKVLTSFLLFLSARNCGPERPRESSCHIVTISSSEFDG
The assay is described as follows: Human GPR119 activation assay (cAMP, HTRF). Type of assay: cell-based. The settings on record: 1 h, HEK293 cells transiently expressing human GPR119, relative to maximum effect of OEA, read-out: hGPR119 activation ability (cAMP assay) Relative Response % vs OEA; for Emax at 0.001 µM: 1 nM; for Emax at 0.01 µM: 10 nM. The source says:
<Experimental Example 1>Human GPR119 activation assay
Human GPR119 was temporarily expressed on cells, thereby quantifying the amount of cyclic adenosine 3′,5′-monophosphate (cAMP) increased upon activating GPR119 by the compound of the present invention, using the product from Cysbio, by a method of HTRF (homogeneous time resolved fluorescence), and such quantification was used to refer to efficacy on GPR119 activation.
Human GPR119 expression vector (Origene) was overexpressed in […] renal epithelial cells (HEK293) (ATCC), and the cells were stabilized for 48 hours. With a solution of 11.1 mM glucose, 0.1% bovine serum albumin, and 0.5 mM IBMX (3-isobutyl-1-methylxanthine) which is a phosphodiesterase inhibitor being added to a KRBH (Krebs-Ringer Bicarbonate HEPES; Hou ZQ. et al., Mol Cell Endocrinol, 2008(291):71-78) buffer, the cells were pre-treated for 10 minutes. Thereafter, the cells were treated with the same solution containing a drug for 60 minutes, then the supernatant was removed, and the increase in cAMP in cells was quantified using a Cysbio cAMP HiRange kit.
As to the maximum efficacy of compounds tested, multiple concentration assessment for the compounds of the present invention was carried out, thereby assessing the relative activation level (%) to the maximum effect of oleoylethanolamide (OEA), an endogenous ligand of GPR119.
For orientation: TR-FRET usually uses a lanthanide donor and a delayed reading to cut background.

Turning to `CC(C)Cc1nc(-c2cnc(N3CCC(CCCOc4cc(F)c(-c5noc(C(C)(C)CO)n5)c(F)c4)CC3)nc2)no1` [Example 36, 2-(3-(2,6-difluoro-4-(3-(1-(5-(5-isobutyl-1,2,4-oxadiazol-3-yl)pyrimidin-2-yl)piperidin-4-yl)propoxy)phenyl)-1,2,4-oxadiazol-5-yl)-2-methylpropan-1-ol], the Emax at 0.001 µM was determined as 66.4% and the Emax at 0.01 µM was determined as 174%.

`CC(C)c1nc(-c2c(F)cc(OCCCC3CCN(c4cnc(Cl)cn4)CC3)cc2F)no1` [Example 37, 3-(4-(3-(1-(5-chloropyrazin-2-yl)piperidin-4-yl)propoxy)-2,6-difluorophenyl)-5-isopropyl-1,2,4-oxadiazole]: the Emax at 0.001 µM worked out at 52.1% and the Emax at 0.01 µM was 307%.

Regarding `Cc1nc(-c2c(F)cc(OCCCC3CCN(c4nc(C(C)C)no4)CC3)cc2F)no1` [Example 39, 3-(2,6-difluoro-4-(3-(1-(3-isopropyl-1,2,4-oxadiazol-5-yl)piperidin-4-yl)propoxy)phenyl)-5-methyl-1,2,4-oxadiazole], the Emax at 0.001 µM stood at 120% and the Emax at 0.01 µM is 201%.

Regarding `CC(C)c1noc(N2CCC(CCCOc3cc(F)c(-c4noc(CO)n4)c(F)c3)CC2)n1` [Example 41, (3-(2,6-difluoro-4-(3-(1-(3-isopropyl-1,2,4-oxadiazol-5-yl)piperidin-4-yl)propoxy)phenyl)-1,2,4-oxadiazol-5-yl)methanol], the Emax at 0.001 µM is 74.4% and the Emax at 0.01 µM came to 203%.

As for `CCc1cnc(N2CCC(CCCOc3cc(F)c(-c4nnc(C(C)C)o4)c(F)c3)CC2)nc1` [Example 44, 2-(4-(3-(1-(5-ethylpyrimidin-2-yl)piperidin-4-yl)propoxy)-2,6-difluorophenyl)-5-isopropyl-1,3,4-oxadiazole], the Emax at 0.001 µM worked out at 493% and the Emax at 0.01 µM came to 830%.

On to `CCc1cnc(N2CCC(CCCOc3cc(F)c(-c4nnc(NC(C)C)o4)c(F)c3)CC2)nc1` [Example 45, 5-(4-(3-(1-(5-ethylpyrimidin-2-yl)piperidin-4-yl)propoxy)-2,6-difluorophenyl)-N-isopropyl-1,3,4-oxadiazol-2-amine], for which the Emax at 0.001 µM is 156% and the Emax at 0.01 µM worked out at 330%.

As for `CC(C)c1nnc(-c2c(F)cc(OCCCC3CCN(c4ncc(C(F)(F)F)cn4)CC3)cc2F)o1` [Example 48, 2-(2,6-difluoro-4-(3-(1-(5-(trifluoromethyl)pyrimidin-2-yl)piperidin-4-yl)propoxy)phenyl)-5-isopropyl-1,3,4-oxadiazole], the Emax at 0.001 µM stood at 163% and the Emax at 0.01 µM stood at 441%.

For `Cc1nnc(-c2c(F)cc(OCCCC3CCN(c4cnc(Cl)cn4)CC3)cc2F)o1` [Example 49, 2-(4-(3-(1-(5-chloropyrazin-2-yl)piperidin-4-yl)propoxy)-2,6-difluorophenyl)-5-methyl-1,3,4-oxadiazole], the Emax at 0.001 µM was found to be 83.4% and the Emax at 0.01 µM is 121%.

Take `CCc1nnc(-c2c(F)cc(OCCCC3CCN(c4cnc(Cl)cn4)CC3)cc2F)o1` [Example 50, 2-(4-(3-(1-(5-chloropyrazin-2-yl)piperidin-4-yl)propoxy)-2,6-difluorophenyl)-5-ethyl-1,3,4-oxadiazole]: the Emax at 0.001 µM came to 120% and the Emax at 0.01 µM came out at 308%.

For `CCCc1noc(N2CCC(CCCOc3cc(F)c(-c4nnc(C)o4)c(F)c3)CC2)n1` [Example 52, 5-(4-(3-(3,5-difluoro-4-(5-methyl-1,3,4-oxadiazol-2-yl)phenoxy)propyl)piperidin-1-yl)-3-propyl-1,2,4-oxadiazole], the Emax at 0.001 µM was 191% and the Emax at 0.01 µM was determined as 295%.

`CCCc1noc(N2CCC(CCCOc3cc(F)c(-c4nnc(CC)o4)c(F)c3)CC2)n1` [Example 53, 5-(4-(3-(3,5-difluoro-4-(5-ethyl-1,3,4-oxadiazol-2-yl)phenoxy)propyl)piperidin-1-yl)-3-propyl-1,2,4-oxadiazole]: the Emax at 0.001 µM was 94.3% and the Emax at 0.01 µM was 154%.
